Measurements as given in patent US20100203110A1, “Therapeutics for Cancer Using 3-Bromopyruvate and Other Selective Inhibitors of ATP Production” (The Johns Hopkins University, priority 2006, published 2010).

Assays:
[1] = system: VX2 tumor glycolysis; test: Glycolytic activity (lactic acid formation) of VX2 tumor slices; assay type: cell-based, rabbit; details: for inhibition of VX2 tumor glycolysis (screen): 6 mM agent, 6 mM glucose, 37° C., 5 h
Description: Glycolysis was assayed by monitoring the formation of lactic acid following the addition of glucose to a medium containing VX2 tumor slices. Specifically, freshly excised tumors were washed 3 times at 4° C. in 20 ml Chance Hess Medium containing 6.2 mM KCl, 154 mM NaCl, and 11 mM NaPi, pH 7.4. Slices, 1 g each, were then prior incubated for 30 min in a Lab-Line incubator-shaker at 37° C. in 2 ml of the same medium while shaking at 50 rpm. Glucose was then added to give a final concentration of 6 mM, after which the incubation/shaking process was continued with 0.2 ml samples being removed every 30 min for up to 2 h. These samples were subjected to centrifugation at 14,000 rpm in an Eppendorf Centrifuge (Model 5415C). Then, aliquots of the supernatant, 0.01 ml, were removed from each sample, diluted with 0.03 ml of water and subjected to lactic acid determination using the kit supplied by Sigma. The latter contains, in addition to lactic dehydrogenase and NAD+, hydrazine, and glycine buffer, pH 9.2. The mixture was incubated for 30 min at 25° C. after which the absorbance due to formation of NADH was determined at 340 nm using a Gilford Model 260 spectrophotometer. To assess the elevation of the glycolytic activity of the VX2 tumor over that of liver tissue, parallel studies were always carried out in an identical manner with 1 g liver slices derived from the host liver. Finally, in those cases where agents were tested for their capacity to inhibit glycolysis, these were introduced into the system at the prior incubation step with all subsequent steps being run in parallel with those described above for the VX2 tumor or liver alone.
The screen included the following 9 compounds: 2-deoxyglucose (2DOG), 2-fluoro-2-deoxyglucose, 6-fluoro-6-deoxyglucose, 3-O-methyl glucose, 5-thio-D-glucose-6-phosphate, L-glucose, D-xylose, D-lyxose, and 3-bromopyruvic acid (3BrPA). The screen was conducted by incubating VX2 tumor slices in a medium containing 6 mM glucose with 6 mM of each of these agents at 37° C. for 5 h. The use of 6 mM glucose in the medium was used to mimic the maximal amount of glucose that might be in the blood in a real in vivo situation.
To compare the inhibitory effects of 2DOG and 3BrPA on the glycolytic capacity of the isolated liver implanted VX2 tumor, various concentrations of 2DOG and 3BrPA were prior incubated for 30 min at 37° C. with 1 g VX2 tumor slices and glycolysis was monitored.

[2] = system: AS-30D hepatoma cells; test: Killing of AS-30D hepatoma cells (trypan blue); assay type: cell-based, rat; details: 20 mM, 12 h
Description: AS-30D hepatoma cells grown in the peritoneal cavity of Sprague Dawley female rats (see Materials) were adapted to grow in tissue culture in Dulbecco's modified Eagle's medium containing 10% fetal bovine serum. Cells were maintained at 37° C. in a humidified atmosphere containing 5% CO2, and counted in a Neubauer chamber after trypan blue dye addition (cell/dye volume=1/1) by visualization under a Nikon inverted microscope.
The studies described above using the VX2 tumor model for liver cancer predict that 2DOG and 3BrPA may have the capacity to kill hepatoma cells expressing the high glycolytic/high hexokinase phenotype. […] Cell killing was assessed in these experiments by counting those cells in which trypan blue had entered.

| SMILES | inhibition of VX2 tumor glycolysis (screen) ([1]; VX2 tumor slices) | further results |
| --- | --- | --- |
| O=C[C@H](F)[C@@H](O)[C@H](O)[C@H](O)CO [2-fluoro-2-deoxyglucose] | ineffective | – |
| O=CC[C@@H](O)[C@H](O)[C@H](O)CO [2DOG, 2-deoxyglucose] | ineffective | IC50 ([1]; Oryctolagus cuniculus, 0.5 h, prior incubated 30 min at 37° C. with 1 g VX2 tumor slices, read-out: half maximal inhibition of glycolysis): ~15 mM; concentration for maximal / complete inhibition of glycolysis ([1]; VX2 tumor slices, 2DOG maximal (70%), 3BrPA complete): ~50 mM; maximal inhibition of glycolysis ([1]; at almost 50 mM, VX2 tumor slices): 70%; cell killing [2]: about 80% |
| CO[C@@H]([C@H](O)[C@H](O)CO)[C@@H](O)C=O [3-O-methyl glucose] | ineffective | – |
| O=C[C@H](O)[C@@H](O)[C@H](O)[C@H](S)COP(=O)(O)O [5-thio-D-glucose-6-phosphate] | ineffective | – |
| O=C[C@H](O)[C@@H](O)[C@H](O)[C@H](O)CF [6-fluoro-6-deoxyglucose] | ineffective | – |
| O=C[C@@H](O)[C@@H](O)[C@H](O)CO [D-lyxose] | ineffective | – |
| O=C[C@H](O)[C@@H](O)[C@H](O)CO [D-xylose] | ineffective | – |
| O=C[C@@H](O)[C@H](O)[C@@H](O)[C@@H](O)CO [L-glucose] | ineffective | – |
